On the set-up of data set [1]: method as in PMID 26101580. The conditions noted are these: cited from earlier work.
The target in data set [2] is human glutaminyl cyclase (hQC) (Homo sapiens, UniProt Q16769). The data set can be described thus: hQC inhibition, fluorometric assay with fluorogenic substrate Glu-AMC and pGAPase.
Description: The synthesized compounds were evaluated for hQC inhibition by a fluorometric assay with a fluorogenic substrate, Glu-AMC·HBr (L-glutamine 7-amido-4-methylcoumarin, BACHEM, Switzerland), and an auxiliary enzyme, pyroglutamyl peptidase (pGAPase, 50 units, Qiagen, Germany), as our previously reported.[29] The used buffer consisted of 25 mM HEPES (Sigma), with pH 7.0, adjusted with HCl. […] After incubation in 96-well black plates (Greiner, Austria) for 10 min at 37 °C, the reaction was started by adding 50 μL of hQC solution (0.04 μg mL^−1). The excitation/emission wavelengths at 380/460 nm were correlated with the amount of ACM, the last product of the enzymatic process.
A further data set relates to human QC. As to conditions: ref bindingdb.org, cited from earlier work.
The mark [3] stands for this setting: IC50 for inhibition of the hQC enzyme, Table 1, HEPES pH 7.0, 37 °C.
Setting [4] is: Table 2, from IC50 assumed equal to the inhibition constant ki.
The mark [5] stands for this setting: supplement Table S1, compounds 1_x and 3_x.

Sequence of human glutaminyl cyclase (hQC) (Q16769 29-361): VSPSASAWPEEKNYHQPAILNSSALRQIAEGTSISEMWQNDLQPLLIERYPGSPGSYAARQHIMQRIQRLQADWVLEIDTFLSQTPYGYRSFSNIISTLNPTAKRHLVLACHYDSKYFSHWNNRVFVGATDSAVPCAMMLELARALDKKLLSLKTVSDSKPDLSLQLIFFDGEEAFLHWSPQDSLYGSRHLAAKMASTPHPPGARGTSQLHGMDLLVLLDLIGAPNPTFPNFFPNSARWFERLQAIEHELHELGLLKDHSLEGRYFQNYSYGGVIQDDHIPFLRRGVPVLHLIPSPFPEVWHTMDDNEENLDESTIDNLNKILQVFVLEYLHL

`COc1cc(NC(=S)NCCCn2ccnc2)ccc1O[11CH3]` [[^11C]PBD150]: in data set [1], the “permeation of the BBB” value is recorded as “impossible permeation the BBB”.
Turning to `COc1ccc(Nc2nnc(CCn3cncc3C)o2)cc1OC` [Compound 1_4], the IC50 in data set [2] (IC50, supplement Table S3) came to 420 nM; in data set [2] (setting [3]), 420 ± 60 nM. Further, the ΔGEXP was -8.75 kcal/mol in data set [2] (setting [4]) and -8.69 kcal/mol in data set [2] (setting [5]).
For the compound `COc1cc2nc(NCCCn3cncc3C)sc2cc1OC` [Compound 1_1], the IC50 in data set [2] (IC50, supplement Table S3) came out at 305 nM; in data set [2] (setting [3]), 300 ± 90 nM. This compound returned a ΔGEXP in data set [2] (setting [4]) of -8.94 kcal/mol.
Consider `COc1cc2nc(NCCCn3cncc3C)[nH]c2cc1OC` [Compound 1_2, 5,6-dimethoxy-N-(3-(5-methyl-1H-imidazol-1-yl)propyl)-1H-benzo[d]imidazol-2-amine], for which the IC50 amounted to 107 nM in data set [2] (IC50, supplement Table S3) and 110 ± 30 nM in data set [2] (setting [3]). This compound also yielded a ΔGEXP in data set [2] (setting [4]) of -9.57 kcal/mol. For the same compound, the “more potent than 1_1” value in data set [2] (ratio of IC50 values) worked out at 2 folds.
With `COC(=O)C(C)NC(=O)C(Cc1ccccc1)NCCCn1cncc1C` (stereo not shown) [Compound 3_1], the IC50 in data set [2] (IC50, supplement Table S3) amounted to 637 nM; in data set [2] (setting [3]) it was 640 ± 90 nM. For the same compound, the values for the ΔGEXP in data set [2] (setting [4]) and in data set [2] (setting [5]) were -8.50 kcal/mol and -8.45 kcal/mol, respectively.
With `Cc1cncn1CCCNC(Cc1ccccc1)C(=O)NC(C)C(N)=O` (stereo not shown) [Compound 3_3], the IC50 in data set [2] (IC50, supplement Table S3) was 446 nM; in data set [2] (setting [3]), 450 ± 40 nM. Also, the results for the ΔGEXP in data set [2] (setting [4]) and in data set [2] (setting [5]) were -8.68 kcal/mol and -8.59 kcal/mol, respectively.
Consider `c1ccc(Cn2ccnc2)cc1` [Compound 77918], for which the ΔGEXP in the data set on human QC (supplement Table S1, ligands 1-12) is -9.03 kcal/mol. On human QC (supplement Table S3), the Ki was 262 nM.
As for `COc1ccc(Nc2nc(CCn3cncc3C)cs2)cc1OC` [Compound 1_3], the IC50 in data set [2] (IC50, supplement Table S3) was 316 nM; in data set [2] (setting [3]), 320 ± 100 nM. This compound registered a ΔGEXP in data set [2] (setting [4]) of -8.92 kcal/mol.

The record behind these values is publication PMC9071946, “In vitro and in silico determination of glutaminyl cyclase inhibitors” (RSC Advances, 2019).
